The target in test [1] is Atypical kinase COQ8A, mitochondrial (Homo sapiens, UniProt Q8NI60).
The target in test [2] is Serine/threonine-protein kinase MRCK beta (Homo sapiens, UniProt Q9Y5S2).
Test [3] addresses T1, ATP-dependent RNA helicase DDX42 (Homo sapiens, UniProt Q86XP3).
T1 sequence (Q86XP3 whole entry): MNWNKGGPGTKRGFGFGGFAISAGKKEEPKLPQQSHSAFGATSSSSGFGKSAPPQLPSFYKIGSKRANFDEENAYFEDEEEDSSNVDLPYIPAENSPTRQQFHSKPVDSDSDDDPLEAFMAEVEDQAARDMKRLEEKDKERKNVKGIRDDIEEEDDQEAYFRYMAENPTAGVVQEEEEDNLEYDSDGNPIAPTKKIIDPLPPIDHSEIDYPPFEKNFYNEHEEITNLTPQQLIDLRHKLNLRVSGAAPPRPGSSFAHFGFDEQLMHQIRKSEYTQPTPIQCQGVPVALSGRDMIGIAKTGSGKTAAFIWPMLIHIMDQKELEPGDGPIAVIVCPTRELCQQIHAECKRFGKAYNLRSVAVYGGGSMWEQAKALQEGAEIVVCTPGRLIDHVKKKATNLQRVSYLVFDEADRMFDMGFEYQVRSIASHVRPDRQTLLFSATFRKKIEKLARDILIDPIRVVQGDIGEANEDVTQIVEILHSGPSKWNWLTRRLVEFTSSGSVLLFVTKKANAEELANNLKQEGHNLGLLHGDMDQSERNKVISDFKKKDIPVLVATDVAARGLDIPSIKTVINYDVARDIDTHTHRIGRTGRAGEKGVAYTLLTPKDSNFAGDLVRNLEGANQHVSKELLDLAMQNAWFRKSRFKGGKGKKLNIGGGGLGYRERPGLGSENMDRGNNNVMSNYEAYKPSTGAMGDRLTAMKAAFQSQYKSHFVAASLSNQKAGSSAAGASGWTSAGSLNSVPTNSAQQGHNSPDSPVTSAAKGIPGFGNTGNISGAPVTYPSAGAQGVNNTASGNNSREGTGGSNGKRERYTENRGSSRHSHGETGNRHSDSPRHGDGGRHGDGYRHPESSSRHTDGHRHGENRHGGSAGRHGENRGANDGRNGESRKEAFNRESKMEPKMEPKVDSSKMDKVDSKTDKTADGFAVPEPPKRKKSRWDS

The target in test [4] is T2, Serine/threonine-protein kinase LATS1 (Homo sapiens, UniProt O95835).
T2 sequence (O95835 whole entry): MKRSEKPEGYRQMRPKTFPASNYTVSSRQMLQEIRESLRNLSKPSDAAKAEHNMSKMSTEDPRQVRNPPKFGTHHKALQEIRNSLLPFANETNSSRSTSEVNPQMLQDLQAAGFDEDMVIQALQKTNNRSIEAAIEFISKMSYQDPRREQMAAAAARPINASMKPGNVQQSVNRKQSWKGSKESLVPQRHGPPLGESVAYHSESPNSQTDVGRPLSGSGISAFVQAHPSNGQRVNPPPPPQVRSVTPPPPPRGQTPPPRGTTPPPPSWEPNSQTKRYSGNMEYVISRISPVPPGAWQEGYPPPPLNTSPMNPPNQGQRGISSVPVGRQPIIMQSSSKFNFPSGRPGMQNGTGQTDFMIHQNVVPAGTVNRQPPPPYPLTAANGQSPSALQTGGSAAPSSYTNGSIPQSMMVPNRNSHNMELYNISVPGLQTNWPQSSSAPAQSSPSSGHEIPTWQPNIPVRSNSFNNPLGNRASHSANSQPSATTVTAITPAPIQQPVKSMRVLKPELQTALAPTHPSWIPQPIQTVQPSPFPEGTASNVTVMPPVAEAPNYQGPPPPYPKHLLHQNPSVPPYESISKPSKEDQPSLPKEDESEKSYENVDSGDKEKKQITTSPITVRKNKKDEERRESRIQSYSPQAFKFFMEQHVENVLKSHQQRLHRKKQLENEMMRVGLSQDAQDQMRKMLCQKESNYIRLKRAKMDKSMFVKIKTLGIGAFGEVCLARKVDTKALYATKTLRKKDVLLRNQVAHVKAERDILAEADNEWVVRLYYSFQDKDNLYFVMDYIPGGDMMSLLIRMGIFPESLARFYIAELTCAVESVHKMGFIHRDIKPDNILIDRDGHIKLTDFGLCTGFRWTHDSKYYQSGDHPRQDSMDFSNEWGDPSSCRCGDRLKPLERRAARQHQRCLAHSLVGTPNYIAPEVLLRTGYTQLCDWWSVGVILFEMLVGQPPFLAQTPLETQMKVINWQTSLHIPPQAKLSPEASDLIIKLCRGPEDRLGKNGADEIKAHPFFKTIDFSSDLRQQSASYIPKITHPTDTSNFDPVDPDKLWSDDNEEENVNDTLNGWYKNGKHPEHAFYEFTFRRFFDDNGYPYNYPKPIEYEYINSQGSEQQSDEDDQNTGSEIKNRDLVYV

For test [5], the target named is Dual specificity mitogen-activated protein kinase kinase 1 (Homo sapiens, UniProt Q02750).
Chain of Dual specificity mitogen-activated protein kinase kinase 1 (Q02750 whole entry): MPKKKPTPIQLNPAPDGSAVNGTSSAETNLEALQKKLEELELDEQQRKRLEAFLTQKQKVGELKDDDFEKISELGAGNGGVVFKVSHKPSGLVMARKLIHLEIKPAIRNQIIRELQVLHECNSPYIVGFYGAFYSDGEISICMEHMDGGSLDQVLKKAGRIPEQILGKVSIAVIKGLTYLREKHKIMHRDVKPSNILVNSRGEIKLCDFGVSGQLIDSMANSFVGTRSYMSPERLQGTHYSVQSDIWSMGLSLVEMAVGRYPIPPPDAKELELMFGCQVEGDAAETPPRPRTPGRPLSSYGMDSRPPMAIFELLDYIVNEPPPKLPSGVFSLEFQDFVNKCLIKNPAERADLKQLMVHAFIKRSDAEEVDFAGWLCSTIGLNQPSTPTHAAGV
Test [6] has as its target Maternal embryonic leucine zipper kinase (Homo sapiens, UniProt Q14680).
Test [7] concerns the target T3, Serine/threonine-protein kinase Nek3 (Homo sapiens, UniProt P51956).
T3 sequence (P51956 whole entry): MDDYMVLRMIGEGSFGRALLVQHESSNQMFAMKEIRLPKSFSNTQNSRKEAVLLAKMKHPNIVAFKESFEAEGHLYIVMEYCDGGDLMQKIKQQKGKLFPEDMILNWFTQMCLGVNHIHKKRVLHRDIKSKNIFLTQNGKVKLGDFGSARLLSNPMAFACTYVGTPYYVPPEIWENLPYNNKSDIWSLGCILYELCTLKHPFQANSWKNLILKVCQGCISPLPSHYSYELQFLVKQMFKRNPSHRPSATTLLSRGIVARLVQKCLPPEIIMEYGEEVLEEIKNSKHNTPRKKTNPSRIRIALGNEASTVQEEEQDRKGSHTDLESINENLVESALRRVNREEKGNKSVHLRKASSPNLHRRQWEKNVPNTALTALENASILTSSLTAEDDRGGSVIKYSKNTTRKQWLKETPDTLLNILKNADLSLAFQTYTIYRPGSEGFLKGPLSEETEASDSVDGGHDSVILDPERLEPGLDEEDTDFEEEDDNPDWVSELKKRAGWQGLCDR

The target in test [8] is Ribosomal protein S6 kinase alpha-4 (Homo sapiens, UniProt O75676).
Chain of Ribosomal protein S6 kinase alpha-4 (O75676 whole entry): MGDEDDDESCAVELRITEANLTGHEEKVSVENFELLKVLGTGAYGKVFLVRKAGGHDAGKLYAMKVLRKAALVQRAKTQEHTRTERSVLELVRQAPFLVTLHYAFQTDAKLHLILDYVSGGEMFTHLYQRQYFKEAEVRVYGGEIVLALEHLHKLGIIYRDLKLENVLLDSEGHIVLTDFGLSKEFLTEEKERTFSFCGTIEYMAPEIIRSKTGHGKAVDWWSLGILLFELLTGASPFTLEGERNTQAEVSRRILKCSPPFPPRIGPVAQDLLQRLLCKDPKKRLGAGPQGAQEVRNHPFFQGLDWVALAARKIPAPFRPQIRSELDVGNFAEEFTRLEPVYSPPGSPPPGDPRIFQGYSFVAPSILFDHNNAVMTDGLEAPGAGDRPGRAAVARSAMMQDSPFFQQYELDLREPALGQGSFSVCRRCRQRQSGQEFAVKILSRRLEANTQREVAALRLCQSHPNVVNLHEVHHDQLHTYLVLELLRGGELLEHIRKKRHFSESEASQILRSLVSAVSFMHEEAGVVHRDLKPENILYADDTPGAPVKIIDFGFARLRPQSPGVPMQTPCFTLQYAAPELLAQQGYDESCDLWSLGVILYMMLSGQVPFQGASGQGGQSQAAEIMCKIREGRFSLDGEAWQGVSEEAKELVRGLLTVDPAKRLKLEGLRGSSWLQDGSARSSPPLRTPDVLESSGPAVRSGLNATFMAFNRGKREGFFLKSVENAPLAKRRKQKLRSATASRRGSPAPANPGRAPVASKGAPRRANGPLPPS

In general, Kd refers to the concentration at which binding is half-saturated.

Activity calls are given as the source filed them. For most assays here, no stated cut-off is given here; in the data, actives have a measured Kd and inactives only a lower limit. Where only a bound is given, the exact number is not on record here.

Chain of Maternal embryonic leucine zipper kinase (Q14680 whole entry): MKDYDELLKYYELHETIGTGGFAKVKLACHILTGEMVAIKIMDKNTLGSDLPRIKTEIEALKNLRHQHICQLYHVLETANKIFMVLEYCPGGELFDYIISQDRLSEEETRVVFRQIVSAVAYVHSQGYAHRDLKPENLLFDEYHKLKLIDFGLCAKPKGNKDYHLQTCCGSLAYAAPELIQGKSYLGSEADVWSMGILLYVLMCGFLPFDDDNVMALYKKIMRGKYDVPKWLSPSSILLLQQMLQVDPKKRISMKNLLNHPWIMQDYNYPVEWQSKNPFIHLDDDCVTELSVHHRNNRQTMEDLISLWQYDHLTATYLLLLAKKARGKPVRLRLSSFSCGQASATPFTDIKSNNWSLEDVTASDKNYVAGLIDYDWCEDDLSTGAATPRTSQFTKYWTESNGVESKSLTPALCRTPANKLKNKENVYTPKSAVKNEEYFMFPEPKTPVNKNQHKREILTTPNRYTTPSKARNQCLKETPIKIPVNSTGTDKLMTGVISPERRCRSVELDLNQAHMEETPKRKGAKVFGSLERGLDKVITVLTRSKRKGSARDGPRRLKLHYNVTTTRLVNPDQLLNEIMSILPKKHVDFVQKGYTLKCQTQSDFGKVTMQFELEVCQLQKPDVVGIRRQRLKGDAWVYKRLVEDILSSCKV
Chain of Serine/threonine-protein kinase MRCK beta (Q9Y5S2 whole entry): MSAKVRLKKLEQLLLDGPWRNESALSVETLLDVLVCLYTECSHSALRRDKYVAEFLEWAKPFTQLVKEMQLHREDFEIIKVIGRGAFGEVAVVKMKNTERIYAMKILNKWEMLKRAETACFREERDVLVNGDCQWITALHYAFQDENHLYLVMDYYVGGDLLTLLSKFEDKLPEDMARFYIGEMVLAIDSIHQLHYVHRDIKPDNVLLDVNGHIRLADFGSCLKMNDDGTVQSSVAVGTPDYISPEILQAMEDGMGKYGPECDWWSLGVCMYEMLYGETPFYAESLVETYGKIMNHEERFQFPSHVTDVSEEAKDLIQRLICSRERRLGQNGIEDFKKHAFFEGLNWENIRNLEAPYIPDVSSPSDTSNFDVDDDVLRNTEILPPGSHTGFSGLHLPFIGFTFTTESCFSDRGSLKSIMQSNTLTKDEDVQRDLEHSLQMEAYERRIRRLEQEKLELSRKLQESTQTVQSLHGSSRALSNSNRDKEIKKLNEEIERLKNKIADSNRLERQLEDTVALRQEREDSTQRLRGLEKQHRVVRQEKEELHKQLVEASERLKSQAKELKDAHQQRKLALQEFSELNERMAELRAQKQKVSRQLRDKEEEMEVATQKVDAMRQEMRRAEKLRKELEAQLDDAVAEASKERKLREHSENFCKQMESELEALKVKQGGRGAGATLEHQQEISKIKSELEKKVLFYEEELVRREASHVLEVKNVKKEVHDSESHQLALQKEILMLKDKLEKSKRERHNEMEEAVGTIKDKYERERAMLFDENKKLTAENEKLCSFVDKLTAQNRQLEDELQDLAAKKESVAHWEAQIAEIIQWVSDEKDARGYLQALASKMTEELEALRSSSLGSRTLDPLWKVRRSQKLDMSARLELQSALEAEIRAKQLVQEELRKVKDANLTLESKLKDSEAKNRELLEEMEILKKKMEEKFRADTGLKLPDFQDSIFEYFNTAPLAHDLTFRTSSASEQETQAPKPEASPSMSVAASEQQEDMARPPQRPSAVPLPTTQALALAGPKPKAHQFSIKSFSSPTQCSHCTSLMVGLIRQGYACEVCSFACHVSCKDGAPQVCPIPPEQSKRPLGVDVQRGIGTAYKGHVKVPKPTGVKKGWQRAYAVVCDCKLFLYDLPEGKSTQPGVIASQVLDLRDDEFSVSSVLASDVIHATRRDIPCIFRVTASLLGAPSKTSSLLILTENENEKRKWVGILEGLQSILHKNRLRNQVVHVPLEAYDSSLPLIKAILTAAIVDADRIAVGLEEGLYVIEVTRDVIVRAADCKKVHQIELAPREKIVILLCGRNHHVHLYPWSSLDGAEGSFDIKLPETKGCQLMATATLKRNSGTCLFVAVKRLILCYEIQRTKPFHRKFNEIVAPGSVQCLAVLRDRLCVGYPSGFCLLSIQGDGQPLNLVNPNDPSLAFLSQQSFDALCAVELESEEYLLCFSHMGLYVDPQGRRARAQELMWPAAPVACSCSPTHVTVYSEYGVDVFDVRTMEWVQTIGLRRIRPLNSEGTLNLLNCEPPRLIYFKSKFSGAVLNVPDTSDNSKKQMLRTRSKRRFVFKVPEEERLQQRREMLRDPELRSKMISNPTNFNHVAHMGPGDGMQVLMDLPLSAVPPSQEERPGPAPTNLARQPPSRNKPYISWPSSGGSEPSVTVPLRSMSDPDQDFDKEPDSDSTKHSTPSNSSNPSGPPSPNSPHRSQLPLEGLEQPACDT
Chain of Atypical kinase COQ8A, mitochondrial (Q8NI60 whole entry): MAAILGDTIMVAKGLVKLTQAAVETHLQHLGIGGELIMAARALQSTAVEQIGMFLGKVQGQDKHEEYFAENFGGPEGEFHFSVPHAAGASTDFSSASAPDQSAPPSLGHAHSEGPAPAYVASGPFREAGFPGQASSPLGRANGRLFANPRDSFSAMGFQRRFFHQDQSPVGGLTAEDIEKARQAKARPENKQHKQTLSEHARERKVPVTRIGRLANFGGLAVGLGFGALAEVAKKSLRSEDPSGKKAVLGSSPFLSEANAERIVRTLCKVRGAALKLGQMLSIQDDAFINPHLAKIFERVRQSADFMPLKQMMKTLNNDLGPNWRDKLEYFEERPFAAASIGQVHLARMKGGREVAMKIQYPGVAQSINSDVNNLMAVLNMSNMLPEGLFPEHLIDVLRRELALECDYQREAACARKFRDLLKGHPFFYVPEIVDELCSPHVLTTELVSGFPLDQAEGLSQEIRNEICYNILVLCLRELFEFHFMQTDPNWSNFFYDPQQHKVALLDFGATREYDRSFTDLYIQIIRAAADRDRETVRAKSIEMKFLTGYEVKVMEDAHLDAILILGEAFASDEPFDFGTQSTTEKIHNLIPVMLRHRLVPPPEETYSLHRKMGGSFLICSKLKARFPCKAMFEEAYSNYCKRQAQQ

Consider `CCN1CCN(Cc2ccc(-c3cc4c(N[C@H](C)c5ccccc5)ncnc4[nH]3)cc2)CC1` [AEE-788], for which the Kd in test [1], in test [2], in test [3], in test [4], in test [5] and in test [6] was > 30 µM (inactive) in each case. Also, the results for the Kd in test [7] and in test [8] were 38.1 µM (active) and > 30 µM (inactive), respectively.

With `O=C(Nc1ccc(-c2ccnc(Nc3ccc(N4CCOCC4)cc3)n2)cc1)C1CCCN1` (stereo unspecified) [XL-019], the Kd in test [1] is > 30 µM (inactive); in test [2], > 30 µM (inactive); in test [3] it was > 30 µM (inactive); in test [4] it was 3.79 µM (active); in test [5], > 30 µM (inactive); in test [6], > 30 µM (inactive). Moreover, the Kd was 0.353 µM (active) in test [7] and > 30 µM (inactive) in test [8].

Consider `CN1CCC(COc2cnc(-c3cccc(Cn4nc(-c5cccc(C#N)c5)ccc4=O)c3)nc2)CC1` [TEPOTINIB], for which the Kd in test [1], in test [2], in test [3], in test [4], in test [5] and in test [6] was > 30 µM (inactive) in each case. The Kd in test [7] and in test [8] was > 30 µM (inactive) each time.

As for `CCn1c(=O)c(-c2cc[nH]n2)cc2c(C)nc(N)nc21` [VOXTALISIB], the Kd in test [1], in test [2], in test [3], in test [4], in test [5] and in test [6] was > 30 µM (inactive) in each case. Further, the Kd in test [7] and in test [8] was > 30 µM (inactive) throughout.

On to `Cn1cc(-c2ccc(F)c(C(F)(F)F)c2)nc1C1CCN(c2ncnc3[nH]ncc23)CC1` [LY-2584702], for which the Kd in test [1], in test [2], in test [3], in test [4], in test [5] and in test [6] was > 30 µM (inactive) each time. In addition, the Kd in test [7] and in test [8] was > 30 µM (inactive) throughout.

As to `Cc1cc2c(F)c(Oc3ncnn4cc(OC[C@@H](C)OC(=O)[C@H](C)N)c(C)c34)ccc2[nH]1` [BRIVANIB ALANINATE], the Kd in test [1], in test [2], in test [3], in test [4], in test [5] and in test [6] was > 30 µM (inactive) in each case. The Kd in test [7] and in test [8] was > 30 µM (inactive) in each case.

For the compound `CNC(=O)c1ccc(C)c(-n2c(C)cc(OCc3ccc(F)cc3F)c(Br)c2=O)c1` [PH-797804], the Kd in test [1], in test [2], in test [3], in test [4], in test [5] and in test [6] was > 30 µM (inactive) each time. The Kd in test [7] and in test [8] was > 30 µM (inactive) throughout.

Consider `CNC(=O)c1cc(Oc2ccc(NC(=O)Nc3ccc(Cl)c(C(F)(F)F)c3)c(F)c2)ccn1` [REGORAFENIB], for which the Kd in test [1], in test [2], in test [3], in test [4], in test [5] and in test [6] was > 30 µM (inactive) in each case. The Kd in test [7] and in test [8] was > 30 µM (inactive) each time.

In the case of `COC(=O)N[C@@H](C)CNc1nccc(-c2cn(C(C)C)nc2-c2cc(Cl)cc(NS(C)(=O)=O)c2F)n1` [ENCORAFENIB], the Kd in test [1], in test [2], in test [3], in test [4], in test [5] and in test [6] was > 30 µM (inactive) throughout. In addition, the Kd in test [7] and in test [8] was > 30 µM (inactive) throughout.

With `Cc1c(F)cc(C(=O)NC2CC2)cc1-c1ccc(C(=O)NCC(C)(C)C)cn1` [LOSMAPIMOD], the Kd in test [1], in test [2], in test [3], in test [4], in test [5] and in test [6] was > 30 µM (inactive) each time. Moreover, the Kd in test [7] and in test [8] was > 30 µM (inactive) throughout.

For the compound `Cc1cc(-c2cc(O)ccc2Cl)cc2nnc(Nc3ccc(OCCN4CCCC4)cc3)nc12`, the Kd in test [1], in test [2], in test [3], in test [4], in test [5] and in test [6] was > 30 µM (inactive) throughout. In addition, the Kd in test [7] and in test [8] was > 30 µM (inactive) each time.

With `CC[C@@H]1C(=O)N(C)c2cnc(Nc3ccc(C(=O)N[C@H]4CC[C@H](N5CCN(CC6CC6)CC5)CC4)cc3OC)nc2N1C(C)C` [VOLASERTIB], the Kd in test [1], in test [2], in test [3], in test [4], in test [5] and in test [6] was > 30 µM (inactive) each time. For the same compound, the Kd was 2.96 µM (active) in test [7] and > 30 µM (inactive) in test [8].

The values are drawn from ChEMBL document CHEMBL3991601, “The target landscape of clinical kinase drugs” (Science, 2017).
